Reference: patent US6407288B1, “Naphthylsalicylanilides as antimicrobial and antiinflammatory agents” (The Research Foundation of State University of New York, priority 2000, dated 2002)

Tests used:
[1] = test system: S. aureus; test: MIC microdilution, gram positive; type: cell-based, Staphlococcus aureus
Procedure: (§1) The MIC's for the compounds were determined by a modified microdilution tube dilution method described in “Methods for Dilution Antimicrobial Susceptibility Tests for Bacteria that Grow Aerobically” (National Committee for Clinical Laboratory Standards Approved Standards, 1997, NCCLS document M7-A4). In general the modifications were made because of the unique growth requirements for the fastidious oral organisms and for those bacteria that require anaerobic conditions. Reference is also made to “Methods for Antimicrobial Susceptibility of Anaerobic Bacteria” (National Committee for Clinical Laboratory Standards Approved Standards, 1997, NCCLS document M11-A4).
(§2) Briefly, the methods were as follows. Cultures were grown for 18-24hrs (aerobic bacteria) or 48-72 hrs (anaerobic bacteria) in the appropriate medium. For aerobic bacteria full strength brain heart infusion medium (BHI, Difco) was used. For anaerobic bacteria, half strength BHI (18.5 g/L) was supplemented by adding yeast extract (10 g/L), hemin (0.29 mL of a stock solution containing 0.1 g/200 mL dH2O) and menadione (15 mL of a stock solution containing 0.15 mL in 30 mL 95% EtOH) was used. Initial cultures were diluted to approximately 1×10^8 CFU/mL for use as an inoculum. Each assay received 10 μL of the inoculum. The drugs were prepared from a stock solution contained in dimethyl sulfoxide (DMSO) and diluted into the culture medium. Final concentrations of the drugs ranged from 50 to 0.05 μg/assay. The tests were run in duplicate and were incubated appropriately with regard to oxygen requirements for 24 to 48 hrs as required. Anaerobic incubation was an atmosphere of 5% CO2, 10% H2, with the balance N2. The lowest concentration of an antimicrobial agent at which no visible growth is noted was referred to as the MIC.
(§3) This embodiment describes the sensitivity of various staphylococcus strains to the compounds of the present invention. The staphylococcus species R is a strain 00-045-1209 from the Children's Hospital in Buffalo. It was isolated from the peritoneal cavity (fluid culture) of an individual. It was coagulase negative. The sensitivity of this strain was tested agaisnt several known antibiotics.

[2] = test system: P. acnes 11828; test: MIC microdilution, gram positive; type: cell-based, Propionibacterium acnes; settings: Table 1, Gram Positive
Procedure: (§4) The MIC's for the compounds were determined by a modified microdilution tube dilution method described in “Methods for Dilution Antimicrobial Susceptibility Tests for Bacteria that Grow Aerobically” (National Committee for Clinical Laboratory Standards Approved Standards, 1997, NCCLS document M7-A4). In general the modifications were made because of the unique growth requirements for the fastidious oral organisms and for those bacteria that require anaerobic conditions. Reference is also made to “Methods for Antimicrobial Susceptibility of Anaerobic Bacteria” (National Committee for Clinical Laboratory Standards Approved Standards, 1997, NCCLS document M11-A4). Briefly, the methods were as follows. Cultures were grown for 18-24hrs (aerobic bacteria) or 48-72 hrs (anaerobic bacteria) in the appropriate medium. For aerobic bacteria full strength brain heart infusion medium (BHI, Difco) was used. For anaerobic bacteria, half strength BHI (18.5 g/L) was supplemented by adding yeast extract (10 g/L), hemin (0.29 mL of a stock solution containing 0.1 g/200 mL dH2O) and menadione (15 mL of a stock solution containing 0.15 mL in 30 mL 95% EtOH) was used. Initial cultures were diluted to approximately 1×10^8 CFU/mL for use as an inoculum. Each assay received 10 μL of the inoculum. The drugs were prepared from a stock solution contained in dimethyl sulfoxide (DMSO) and diluted into the culture medium. Final concentrations of the drugs ranged from 50 to 0.05 μg/assay. The tests were run in duplicate and were incubated appropriately with regard to oxygen requirements for 24 to 48 hrs as required. Anaerobic incubation was an atmosphere of 5% CO2, 10% H2, with the balance N2. The lowest concentration of an antimicrobial agent at which no visible growth is noted was referred to as the MIC.

[3] = test system: P. acnes 6922; test: MIC microdilution, gram positive; type: cell-based, Propionibacterium acnes; settings: Table 1, Gram Positive
Procedure: as §4

[4] = test system: M. luteus; test: MIC microdilution, gram positive; type: cell-based, Micrococcus luteus; settings: Table 2, Gram Positive
Procedure: as §4

[5] = test system: S. sanguis; test: MIC microdilution, gram positive; type: cell-based, Streptococcus sanguis; settings: Table 1, Gram Positive
Procedure: as §4

[6] = test system: S. species R; test: Staphylococcus MIC; type: cell-based, staphylococcus species R; settings: second Table 5 (Example 5); strain 00-045-1209
Procedure: as §1, §2, §3

[7] = test system: Aa Y4; test: MIC microdilution, gram negative; type: cell-based, Actinobacillus actinomycetemcomitans
Procedure: (§5) The MIC's for the compounds were determined by a modified microdilution tube dilution method described in “Methods for Dilution Antimicrobial Susceptibility Tests for Bacteria that Grow Aerobically” (National Committee for Clinical Laboratory Standards Approved Standards, 1997, NCCLS document M7-A4). In general the modifications were made because of the unique growth requirements for the fastidious oral organisms and for those bacteria that require anaerobic conditions. Reference is also made to “Methods for Antimicrobial Susceptibility of Anaerobic Bacteria” (National Committee for Clinical Laboratory Standards Approved Standards, 1997, NCCLS document M11-A4). Briefly, the methods were as follows. Cultures were grown for 18-24hrs (aerobic bacteria) or 48-72 hrs (anaerobic bacteria) in the appropriate medium. For aerobic bacteria full strength brain heart infusion medium (BHI, Difco) was used. For anaerobic bacteria, half strength BHI (18.5 g/L) was supplemented by adding yeast extract (10 g/L), hemin (0.29 mL of a stock solution containing 0.1 g/200 mL dH2O) and menadione (15 mL of a stock solution containing 0.15 mL in 30 mL 95% EtOH) was used. Initial cultures were diluted to approximately 1×10^8 CFU/mL for use as an inoculum. Each assay received 10 μL of the inoculum. The drugs were prepared from a stock solution contained in dimethyl sulfoxide (DMSO) and diluted into the culture medium. Final concentrations of the drugs ranged from 50 to 0.05 μg/assay. The tests were run in duplicate and were incubated appropriately with regard to oxygen requirements for 24 to 48 hrs as required. Anaerobic incubation was an atmosphere of 5% CO2, 10% H2, with the balance N2. The lowest concentration of an antimicrobial agent at which no visible growth is noted was referred to as the MIC. […] The method used was the same as described in Example 1.

[8] = test system: A. viscosus; test: MIC microdilution, gram positive; type: cell-based, Actinomyces viscosus; settings: Table 2, Gram Positive
Procedure: as §4

[9] = test system: P. ging 381; test: MIC microdilution, gram negative; type: cell-based, Porphyromonas gingivalis
Procedure: as §5

[10] = test system: Pg 53977; test: MIC microdilution, gram negative; type: cell-based, Porphyromonas gingivalis
Procedure: as §5

[11] = test system: Fuso. 25586; test: MIC microdilution, gram negative; type: cell-based, Fusobacterium nucleatum
Procedure: as §5

[12] = test system: Lact 7496; test: MIC microdilution, gram positive; type: cell-based, Lactobacillus rhamnosus (casei); settings: Table 2, Gram Positive
Procedure: as §4

[13] = test system: Str. pn. R; test: Mean Streptococcus MIC; type: cell-based; settings: Table 5, mean; strain resistant to penicillin and erythromycin
Procedure: as §1, §2
(§6) This embodiment illustrates the efficacy of the compounds of the present invention against Streptococcus strains. One of the strains, Str.pn.R was obtained from the Children's Hospital in Buffalo (strain 00-041-0614). […] The sensitivity of this strain was tested against several known antibiotics.

[14] = test system: Str. pn; test: Mean Streptococcus MIC; type: cell-based; settings: Table 5, mean
Procedure: as §1, §2, §6

[15] = test system: S.salivarius; test: MIC microdilution, gram positive; type: cell-based, Streptococcus salivarius; settings: Table 1, Gram Positive
Procedure: as §4

[16] = test system: S. mutans; test: MIC microdilution, gram positive; type: cell-based, Streptococcus mutans; settings: Table 1, Gram Positive
Procedure: as §4

[17] = test system: B. fragilis; test: MIC microdilution, gram negative; type: cell-based, Bacteroides fraglis
Procedure: as §5

[18] = test system: staphylococcus species R (strain 00-045-1209); test: Sensitivity of strain to known antibiotics; type: cell-based; settings: sensitive / resistant
Procedure: as §3

[19] = test system: Str.pn.R (strain 00-041-0614); test: Sensitivity of strain to known antibiotics; type: cell-based, Streptococcus; settings: sensitive / resistant
Procedure: as §6

[20] = Table 3 printed a second time, Gram Negative

N#Cc1ccc(NC(=O)c2cc(C(=O)c3ccc4ccccc4c3)ccc2O)cc1 [NA2pC]
MIC S. aureus ([1]; Table 2, Gram Positive): 6.3 micrograms/ml | MIC S. aureus ([1]; second Table 5 (Example 5)): 6.3 micrograms/ml | MIC P. acnes 11828 [2]: 6.3 micrograms/ml | MIC P. acnes 6922 [3]: 6.3 micrograms/ml | MIC M. luteus [4]: 3.1 micrograms/ml | MIC S. sanguis [5]: 6.3 micrograms/ml | MIC S. species R [6]: 12.5 micrograms/ml | MIC Aa Y4 ([7]; Table 3, Gram Negative): 6.3 micrograms/ml | MIC Aa Y4 [7, 20]: 6.3 micrograms/ml | MIC A. viscosus [8]: 1.6 micrograms/ml | MIC P. ging 381 ([9]; Table 3, Gram Negative): 0.4 micrograms/ml | MIC P. ging 381 [9, 20]: 0.4 micrograms/ml | MIC Pg 53977 ([10]; Table 3, Gram Negative): 0.4 micrograms/ml | MIC Pg 53977 [10, 20]: 0.4 micrograms/ml | MIC Fuso. 25586 ([11]; Table 3, Gram Negative): 12.5 micrograms/ml | MIC Fuso. 25586 [11, 20]: 12.5 micrograms/ml | MIC Lact 7496 [12]: 6.3 micrograms/ml | Mean Streptococcus MIC values Str. pn. R [13]: 3.12 micrograms/ml | Mean Streptococcus MIC values Str. pn [14]: 0.58 micrograms/ml | MIC S.salivarius [15]: 50 micrograms/ml | MIC S. mutans [16]: 1.6 micrograms/ml | MIC B. fragilis ([17]; Table 3, Gram Negative): 3.1 micrograms/ml | MIC B. fragilis [17, 20]: 3.1 micrograms/ml

CC[C@H]1OC(=O)[C@H](C)[C@@H](O[C@H]2C[C@@](C)(OC)[C@@H](O)[C@H](C)O2)[C@H](C)[C@@H](O[C@@H]2O[C@H](C)C[C@H](N(C)C)[C@H]2O)[C@](C)(O)C[C@@H](C)CN(C)[C@H](C)[C@@H](O)[C@]1(C)O [azithromycin]
sensitivity of staphylococcus species R to known antibiotics [18]: resistant

O=C(c1ccc(O)c(C(=O)Nc2cccc(C(F)(F)F)c2)c1)c1ccc2ccccc2c1 [NA2mF]
MIC S. aureus ([1]; Table 2, Gram Positive): NE (NE indicates that the drug was not effective at a concentration >50 micrograms/ml) | MIC S. aureus ([1]; second Table 5 (Example 5)): NE (NE indicates that the drug was not effective at a concentration >50 micrograms/ml) | MIC P. acnes 11828 [2]: 0.4 micrograms/ml | MIC P. acnes 6922 [3]: 0.4 micrograms/ml | MIC M. luteus [4]: 0.8 micrograms/ml | MIC S. sanguis [5]: 0.8 micrograms/ml | MIC S. species R [6]: 25.0 micrograms/ml | MIC Aa Y4 ([7]; Table 3, Gram Negative): NE (NE indicates that the drug was not effective at a concentration >50 micrograms/ml) | MIC Aa Y4 [7, 20]: NE (NE indicates that the drug was not effective at a concentration >50 micrograms/ml) | MIC A. viscosus [8]: NE (NE indicates that the drug was not effective at a concentration >50 micrograms/ml) | MIC P. ging 381 ([9]; Table 3, Gram Negative): <0.4 micrograms/ml | MIC P. ging 381 [9, 20]: <0.4 micrograms/ml | MIC Pg 53977 ([10]; Table 3, Gram Negative): <0.4 micrograms/ml | MIC Pg 53977 [10, 20]: <0.4 micrograms/ml | MIC Fuso. 25586 ([11]; Table 3, Gram Negative): NE (NE indicates that the drug was not effective at a concentration >50 micrograms/ml) | MIC Fuso. 25586 [11, 20]: NE (NE indicates that the drug was not effective at a concentration >50 micrograms/ml) | MIC Lact 7496 [12]: 1.6 micrograms/ml | Mean Streptococcus MIC values Str. pn. R [13]: 0.78 micrograms/ml | Mean Streptococcus MIC values Str. pn [14]: 0.84 micrograms/ml | MIC S.salivarius [15]: 50 micrograms/ml | MIC S. mutans [16]: NE (NE indicates that the drug was not effective at a concentration >50 micrograms/ml) | MIC B. fragilis ([17]; Table 3, Gram Negative): NE (NE indicates that the drug was not effective at a concentration >50 micrograms/ml) | MIC B. fragilis [17, 20]: NE (NE indicates that the drug was not effective at a concentration >50 micrograms/ml)

CO/N=C(\C(=O)N[C@@H]1C(=O)N2C(C(=O)O)=C(COC(C)=O)CS[C@H]12)c1csc(N)n1 [cefotaxime]
sensitivity of staphylococcus species R to known antibiotics [18]: resistant

N[C@@H]1[C@H]2CN(c3nc4c(cc3F)c(=O)c(C(=O)O)cn4-c3ccc(F)cc3F)C[C@@H]12 [Trovoflox]
sensitivity of strain Str.pn.R to known antibiotics [19]: sensitive

CC1(C)S[C@@H]2[C@H](NC(=O)[C@H](N)c3ccc(O)cc3)C(=O)N2[C@H]1C(=O)O [amoxicillin]
sensitivity of staphylococcus species R to known antibiotics [18]: resistant

Cc1onc(-c2ccccc2)c1C(=O)N[C@@H]1C(=O)N2[C@@H]1SC(C)(C)[C@@H]2C(=O)O [oxacillin]
sensitivity of staphylococcus species R to known antibiotics [18]: resistant

penicillin
sensitivity of strain Str.pn.R to known antibiotics [19]: resistant

CO[C@H]1/C=C/O[C@@]2(C)Oc3c(C)c(O)c4c(O)c(c(/C=N/N5CCN(C)CC5)c(O)c4c3C2=O)NC(=O)/C(C)=C\C=C\[C@H](C)[C@H](O)[C@@H](C)[C@@H](O)[C@@H](C)[C@H](OC(C)=O)[C@@H]1C [Rifampin]
sensitivity of strain Str.pn.R to known antibiotics [19]: sensitive
